The subject of data set [1] is phenylquinone. As to the kind of experiment: Writhing test, acute (phenylquinone writhing, analgesic activity). Type of data set: in vivo. Conditions: Mus musculus, mice, acute, phenylquinone 2 mg/kg i.p., hydrochloride. The method, then:
(§1) The pharmacological investigations were conducted on mice weighing 20-22 g. or on rats weighing 80-110 g. Unless indicated otherwise, the test substances were administered in the form of the hydrochloride acid addition salt thereof in an isotonic NaCl solution, and the animals were examined 30 minutes after subcutaneous (sc) application. The injection volume was respectively 5 ml./kg. of body weight. 10-40 controls animals were used in each experiment. The test and control solutions were administered in accordance with a randomized injection schedule. Seven logarithmically spaced dosages were employed of each test substance. The effective dose (ED) was calculated by probit analysis (Finney, D. J., "Probit Analysis," Cambridge University Press, 2nd Edition, Cambridge 1957). ED50 figures were rounded.
(§2) In the acute test, the test compounds were administered perorally (p.o.) or subcutaneously (s.c.) to mice. Eight mice were used per dose. Seven minutes prior to the testing, the animals received 2 mg./kg. of phenylquinone intraperitoneally. […] The criterion for protective effect was absence of writhes during the eighth minute after phenylquinone administration.

A further data set concerns apomorphine. As to the kind of experiment: Apomorphine antagonism test. Type of data set: in vivo, mice. Conditions: Mus musculus, sc, read-out: ED50, Apomorphine Antagonism. The method, then: as §1
The criterion for antagonistic effect was the absence of stereotyped movements within an observation period of one minute.

A further data set relates to electroshock. As to the kind of experiment: Maximal electroshock test. Type of data set: in vivo. The conditions noted are these: mice; for ED50: Mus musculus, sc, 0.5 h, 16 mA/50 c.p.s., 0.2 second, transcorneal, absence of tonic extensor cramp of hind limbs, 30 min. How it is done:
10-40 controls animals were used in each experiment. […] ED50 figures were rounded.
In the maximum electroshock test, the test substances were administered to dose groups of 6 mice. Sinusoidal pulses of 16 milliamperes/50 c.p.s. [Hertz] and 0.2 second duration were delivered transcorneally via silver electrodes. The shock intensity used elicits nonlethal tonic-clonic convulsions in control animals (p <0.01, N = 192). The criterion for protective effect was the absence of the tonic extensor cramp of the hind limbs after shock application (modified test according to Swinyard et al., J. Pharmacol. Exp. Ther. 106, 319, 1952).

Data set [2] relates to morphine. As to the kind of experiment: animal or person. Type of data set: in vivo, rats. Conditions: for ED50: Rattus norvegicus, sc, read-out: ED50, Morphine Antagonism-Tail-Flick Test, Rats.
The subject of data set [3] is morphine. The experiment in a line: Precipitated Withdrawal Jumping Test (morphine antagonism in morphine-dependent mice). The class given is in vivo. The conditions noted are these: morphine-dependent mice. How it is done:
as §1
The test compound was given to dose groups of 8 animals. The antagonist-precipitated withdrawal jumping frequencies were recorded during three 5-minute observation intervals uniformly distributed over 30 minutes after administration of the test compound. […] The criterion for a precipitating effect is a mean jumping frequency of >1/minute.

For data set [4] the following is noted: J. Pharmacol. Exp. Ther. 144, 12, 1964; Clin. Pharmacol. Ther. 11:1, 41, 1970; cited from earlier work.
Data set [5] has as its system morphine. Also noted: species or system mice. The conditions noted are these: mouse, in vivo; for ED50, Morphine Antagonism-Tail-Flick Test, Mice: sc, 12.5 mg/kg. (Hot-plate and tail-flick tests time the reaction to a heat stimulus.)
For data set [6], the system named is phenylquinone. The conditions noted are these: mice; after subchronic administration of equal total doses. The method, then:
as §1, §2
In the subchronic test, the same test was performed 25 hours after the last injection of a 64-hour pretreatment period, with the test compound being administered subcutaneously. During the pretreatment period, the subjects received a total of 550 mg/kg. of the test compound, with the test compound being injected over a period of 22 hours in 4 increasing dosages in salt form, and over an additional 42 hours in 2 identical dosages in free base form in sesame oil.

A further data set relates to naloxone. The experiment in a line: Naloxone challenge after subchronic administration of test compound (physical dependency). Conditions: mice; naloxone in doses of up to 100 mg/kg; same schedule and total dosage as for acute morphine dependency.
Where [7] appears, read: po, 10 min, p.o., 10 min p.i., ED50 rounded, read-out: ED50, writhing test, acute p.o., 10 min. p.i.
Setting [8] is: po, 0.5 h, p.o., 30 min p.i., ED50 rounded, read-out: ED50, writhing test, acute p.o., 30 min. p.i.
[9] abbreviates: sc, 10 min, s.c., 10 min p.i., ED50 rounded, read-out: ED50, writhing test, acute s.c., 10 min. p.i.
The mark [10] stands for this setting: sc, 0.5 h, s.c., 30 min p.i., * = significant difference between acute and subchronic ED50 (p < 0.001), read-out: ED50, writhing test, acute s.c., 30 min. p.i.

“Also recorded” adds a separate entry of the source. Read-outs that look alike come from different tables or passages of the source.

In the case of `C[C@H]1[C@H]2Cc3ccc(O)cc3[C@]1(C)CCN2CC1CC1` [Cyclazocine, reference compound], the ED50 with phenylquinone [1] (setting [7]) was determined as 6 mg/kg; in the data set with phenylquinone [1] (setting [8]), 8 mg/kg; in the data set on phenylquinone [1] (setting [9]), 0.06 mg/kg; with phenylquinone [1] (setting [10]) it was 0.09 mg/kg; in the data set with apomorphine, 6 mg/kg; in the data set with electroshock, 2 mg/kg. In the data set on morphine [2], the ED50 was found to be 0.2 mg/kg. Besides, in the data set with electroshock, the “muscle-relaxant and anti-convulsant effect in maximum electroshock test (in words)” value was “strong muscle-relaxant and anti-convulsant effect”. Moreover, the “precipitated withdrawal effect (in words)” value in the data set on morphine [3] was “inactivity”. Also, the “sedative and muscle-relaxant effect (explaining inactivity in jumping test)” value with morphine [3] was “simultaneous sedative and muscle-relaxant effect”. Moreover, in the data set on morphine [3] (tested at 0.55 - 3.13 mg/kg), the “ED50, Precipitated Withdrawal Jumping Test (inactive, footnote 2)” value is reported as “Inactive”. The “properties of cyclazocine from the literature” value in [4] was “narcotic partial antagonist of the benzomorphan series with analgesic; also recorded: antidepressant properties”. Also, the “ED50, Morphine Antagonism-Tail-Flick Test, Mice” value in the data set with morphine [5] is on record as 0.1 mg/kg.
Turning to `CC(C)=CCN1CCC2(C)c3cc(O)ccc3CC1C2C` (stereo not drawn) [Pentazocine, reference compound], the ED50 in the data set with phenylquinone [1] (setting [7]) turned out to be 50 mg/kg; in the data set with phenylquinone [1] (setting [8]) it was 70 mg/kg; with phenylquinone [1] (setting [9]), 3 mg/kg; in the data set on phenylquinone [1] (setting [10]) it was 3 mg/kg; in the data set with apomorphine it was 40 mg/kg; with electroshock, 17 mg/kg. Besides, in the data set with morphine [2], the ED50 was determined as 40 mg/kg. Besides, the tolerance development result in the data set on phenylquinone [6] is listed as “do not exhibit tolerance development”. In addition, the “morphine-antagonistic activity, tail-flick test (in words), rats” value with morphine [2] (rat, in vivo) is “weaker activity, especially in rats”. For the same molecule, the “precipitated withdrawal effect (in words)” value in the data set with morphine [3] is “completely inactive”. Moreover, the “ED50, Precipitated Withdrawal Jumping Test (inactive, footnote 3)” value in the data set on morphine [3] (tested at 0.78 - 50 mg/kg) was “Inactive”. In addition, in the data set with naloxone, the “withdrawal jumping precipitated by naloxone after subchronic administration (morphine-like physical dependency)” value was “no withdrawal jumping is precipitated”. For the same molecule, the “morphine-antagonistic activity, tail-flick test (in words), mice” value in the data set with morphine [5] is recorded as “weaker activity”. In the data set with morphine [5], the “ED50, Morphine Antagonism-Tail-Flick Test, Mice” value turned out to be 5 mg/kg.

The ED50 is the dose at which the effect has come halfway, by size or by number of responders.
